Assay results: EP0096013A1, “Salts of erythromycin showing a combined therapeutic activity, process for their preparation and pharmaceutical formulations containing them” (NUOVO CONSORZIO SANITARIO NAZIONALE, priority 1982, dated 1983)
≈ marks a conversion by molar mass, not a printed value. Like-named read-outs stand apart in the source and are kept apart here.

Tests used:
[1] = solubility in water; assay type: physicochemical; conditions: parts of water needed to dissolve the salt
[2] = test system: Streptococcus beta-haemolyticus; assay: in vitro antibacterial activity (MIC) against hospital strains; assay type: cell-based
[3] = solubility in ethanol
[4] = Streptococcus beta-haemolyticus strain B (hospital strain)
[5] = Streptococcus beta-haemolyticus strain C (hospital strain)
[6] = Streptococcus beta-haemolyticus strain D (hospital strain)
[7] = Streptococcus beta-haemolyticus strain A (hospital strain)

| SMILES | soluble in p. water [1] [p.] | soluble in p. ethanol 95% v/v [3] [p.] | MIC [2, 4] [µg⁻¹ mL⁻¹] | MIC [2, 5] [µg⁻¹ mL⁻¹] | MIC [2, 6] [µg⁻¹ mL⁻¹] | MIC [2, 7] [µg⁻¹ mL⁻¹] | MIC ([2]; Streptococcus, Streptococcus beta-haemolyticus strain C (hospital strain)) [µg/mL] | MIC ([2]; Streptococcus, Streptococcus beta-haemolyticus strain A (hospital strain), read-out: MIC) [µg/mL] | MIC ([2]; Streptococcus, Streptococcus beta-haemolyticus strain B (hospital strain), read-out: MIC) [µg/mL] | MIC ([2]; Streptococcus, Streptococcus beta-haemolyticus strain C (hospital strain), read-out: MIC) [µg/mL] | MIC ([2]; Streptococcus, Streptococcus beta-haemolyticus strain D (hospital strain), read-out: MIC) [µg/mL] |
| --- | --- | --- | --- | --- | --- | --- | --- | --- | --- | --- | --- |
| CC[C@H]1OC(=O)[C@H](C)[C@@H](O[C@H]2C[C@@](C)(OC)[C@@H](O)[C@H](C)O2)[C@H](C)[C@@H](O[C@@H]2O[C@H](C)C[C@H](N(C)C)[C@H]2O)[C@](C)(O)C[C@@H](C)C(=O)[C@H](C)[C@@H](O)[C@]1(C)O [Erythromycin acetylsalicylate] | 100 |  | 0.6 | 0.3 | 0.075 |  |  |  |  |  |  |
| CC[C@H]1OC(=O)[C@H](C)[C@@H](O[C@H]2C[C@@](C)(OC)[C@@H](O)[C@H](C)O2)[C@H](C)[C@@H](O[C@@H]2O[C@H](C)C[C@H](N(C)C)[C@H]2O)[C@](C)(O)C[C@@H](C)C(=O)[C@H](C)[C@@H](O)[C@]1(C)O [Erythromycin base, erythromycin A, reference compound] |  |  |  |  | 0.6 | 5 | 0.6 (≈ 0.818 µM) |  |  |  |  |
| CCC(=O)O[C@H]1[C@H](O[C@@H]2[C@@H](C)[C@H](O[C@H]3C[C@@](C)(OC)[C@@H](O)[C@H](C)O3)[C@@H](C)C(=O)O[C@H](CC)[C@@](C)(O)[C@H](O)[C@@H](C)C(=O)[C@H](C)C[C@@]2(C)O)O[C@H](C)C[C@@H]1N(C)C [Propionylerythromycin (+)-alpha-mercapto-propionyl-glycinate] [Propionylerythromycin (+)-alpha-mercaptopropionyl-glycinate] | 90 | 2 | 0.3 | 0.3 | 0.3 | 5 |  |  |  |  |  |
| CCC(=O)O[C@H]1[C@H](O[C@@H]2[C@@H](C)[C@H](O[C@H]3C[C@@](C)(OC)[C@@H](O)[C@H](C)O3)[C@@H](C)C(=O)O[C@H](CC)[C@@](C)(O)[C@H](O)[C@@H](C)C(=O)[C@H](C)C[C@@]2(C)O)O[C@H](C)C[C@@H]1N(C)C [Propionylerythromycin base, propionic ester (2'-.propanoate) of erythromycin A, reference compound] |  |  |  |  |  |  |  | 2.5 (≈ 3.16 µM) | 0.6 (≈ 0.759 µM) | 0.6 (≈ 0.759 µM) | 0.6 (≈ 0.759 µM) |

Further lines, with some results ahead:

| soluble in p. water [1] [p.] | soluble in p. ethanol 95% v/v [3] [p.] | SMILES | MIC [2, 4] [µg⁻¹ mL⁻¹] | MIC [2, 5] [µg⁻¹ mL⁻¹] | MIC [2, 6] [µg⁻¹ mL⁻¹] | MIC [2, 7] [µg⁻¹ mL⁻¹] | MIC ([2]; Streptococcus, Streptococcus beta-haemolyticus strain C (hospital strain)) [µg/mL] | MIC ([2]; Streptococcus, Streptococcus beta-haemolyticus strain A (hospital strain), read-out: MIC) [µg/mL] | MIC ([2]; Streptococcus, Streptococcus beta-haemolyticus strain B (hospital strain), read-out: MIC) [µg/mL] | MIC ([2]; Streptococcus, Streptococcus beta-haemolyticus strain C (hospital strain), read-out: MIC) [µg/mL] | MIC ([2]; Streptococcus, Streptococcus beta-haemolyticus strain D (hospital strain), read-out: MIC) [µg/mL] |
| --- | --- | --- | --- | --- | --- | --- | --- | --- | --- | --- | --- |
| 300 | 4 | CCC(=O)O[C@H]1[C@H](O[C@@H]2[C@@H](C)[C@H](O[C@H]3C[C@@](C)(OC)[C@@H](O)[C@H](C)O3)[C@@H](C)C(=O)O[C@H](CC)[C@@](C)(O)[C@H](O)[C@@H](C)C(=O)[C@H](C)C[C@@]2(C)O)O[C@H](C)C[C@@H]1N(C)C [Propionylerythromycin acetylsalicylate] | 0.3 | 0.3 | 0.3 | 5 |  |  |  |  |  |
| 60 | 2 | CCC(=O)O[C@H]1[C@H](O[C@@H]2[C@@H](C)[C@H](O[C@H]3C[C@@](C)(OC)[C@@H](O)[C@H](C)O3)[C@@H](C)C(=O)O[C@H](CC)[C@@](C)(O)[C@H](O)[C@@H](C)C(=O)[C@H](C)C[C@@]2(C)O)O[C@H](C)C[C@@H]1N(C)C [propionylerythromycin (-)-alpha-propionyl-glycinate] |  |  |  |  |  |  |  |  |  |
